Assay results reported in patent US10912294B2, “Composition for use as pesticide, fertilizer, or both, and uses thereof” (priority 2015, dated 2021).

Tests used:
[1] = tested on: Staphylococcus aureus (ATCC 6538); assay: Minimum concentration for total bactericidal activity, AOAC method 955.15 (Phenol Coefficient Method); assay type: cell-based; details: total antimicrobial (bactericidal) activity; incorporated into composition F; contact time 10 minutes
[2] = tested on: Staphylococcus aureus ATCC43300; details: A. Nostro et al. 2004; cited from earlier work
[3] = tested on: Staphylococcus aureus ATCC6538; details: R. J. W. Lambert et al. 2001; cited from earlier work
[4] = tested on: Staphylococcus epidermidis ATCC12228; details: A. Nostro et al. 2004; cited from earlier work
[5] = tested on: Pseudomonas aeruginosa ATCC2730; details: R. J. W. Lambert et al. 2001; cited from earlier work
[6] = tested on: Candida albicans ATCC10231; details: E. pinto et al. 2006; cited from earlier work
[7] = tested on: Candida tropicalis ATCC13803; details: E. pinto et al. 2006; cited from earlier work
[8] = tested on: Epidermophyton floccosum FF9; details: E. pinto et al. 2006; cited from earlier work
Trichophyton rubrum FF5 = details: E. pinto et al. 2006; cited from earlier work
[9] = tested on: Trichophyton mentagrophytes FF7; details: E. pinto et al. 2006; cited from earlier work
Microsporum canis FF1 = details: E. pinto et al. 2006; cited from earlier work
Microsporum gypseum FF3 = details: E. pinto et al. 2006; cited from earlier work
[10] = tested on: Aspergillus niger ATCC16404; details: E. pinto et al. 2006; cited from earlier work
[11] = tested on: Aspergillus fumigatus ATCC46645; details: E. pinto et al. 2006; cited from earlier work
[12] = in vivo; cited from earlier work
[13] = tested on: Treponema phagedaenis-like; details: D. Döpfer et al. 2013; cited from earlier work
[14] = tested on: E. amylovora 433 (streptomycin-sensitive); assay: Sensitivity test on King B agar media; assay type: cell-based, Erwinia amylovora; details: streptomycin 100, 250 and 500 ppm; composition 12 at 1, 2.5 and 5%; up to 72 hours at 26° C.
[15] = tested on: E. amylovora 435 (streptomycin-sensitive); assay: Sensitivity test on King B agar media; assay type: cell-based, Erwinia amylovora; details: streptomycin 100, 250 and 500 ppm; composition 12 at 1, 2.5 and 5%; up to 72 hours at 26° C.
[16] = tested on: E. amylovora 153sm5 (streptomycin-resistant); assay type: cell-based, Erwinia amylovora; details: streptomycin 100, 250 and 500 ppm; composition 12 at 1, 2.5 and 5%; up to 72 hours at 26° C.
E. coli ATCC 25922 = assay: Sensitivity test on King B agar media; assay type: cell-based; details: streptomycin 100, 250 and 500 ppm; composition 12 at 1, 2.5 and 5%; up to 72 hours at 26° C.

For `Cc1ccc(C(C)C)cc1O` [Carvacrol], the “Minimal Concentration” value [1] is listed as 0.07 v/v %, the MIC [2] is listed as 0.015 v/v % and the MIC [3] is listed as 0.0175 v/v %. The MIC [4] was 0.03 v/v %, the MIC [5] was 0.045 v/v % and the MIC [6] was 0.016 v/v %. For the same compound, the MIC [7] was 0.016 v/v %, the MIC [8] was 0.008 v/v % and the MIC (Trichophyton rubrum FF5) was 0.008 v/v %. The MIC [9] was 0.004 v/v %, the MIC (Microsporum canis FF1) was 0.004 v/v % and the MIC (Microsporum gypseum FF3) was 0.004 v/v %. The MIC [10] was 0.016 v/v % and the MIC [11] was 0.016 v/v %.

With `CC(C)=CCCC(C)=CC=O` [Citral] the “Minimal Concentration” value [1] was >1% v/v %.

With `C=CCc1ccc(O)c(OC)c1` [Eugenol] the “Minimal Concentration” value [1] was 0.4 v/v %.

For `COCC(C)O` (stereo not shown) [Glycol Ether PM], the “LD50 Oral-rat” value [12] is listed as 5 210 mg/kg.

In the case of `CCCCCCCCCCCCOS(=O)(=O)[O-].[Na+]` [Sodium Lauryl Sulfate], the “LD50 Oral-rat” value [12] is given as 1288 mg/kg.

For `Cc1ccc(C(C)C)c(O)c1` [Thymol], the “Minimal Concentration” value [1] is listed as 0.07 v/v %, the MIC [2] is listed as 0.06 v/v % and the MIC [3] is listed as 0.014 v/v %. For the same compound, the MIC [4] was 0.06 v/v %, the MIC [5] was 0.0385 v/v % and the MIC [13] was 0.0006 v/v %. For the same compound, the MIC [6] was 0.016 v/v %, the MIC [7] was 0.016 v/v % and the MIC [8] was 0.016 v/v %. The MIC (Trichophyton rubrum FF5) was 0.016 v/v %, the MIC [9] was 0.016 v/v % and the MIC (Microsporum canis FF1) was 0.008 v/v %. The MIC (Microsporum gypseum FF3) was 0.016 v/v %, the MIC [10] was 0.016 v/v % and the MIC [11] was 0.016 v/v %.

For `[H]/N=C(/N)N[C@H]1[C@H](O)[C@@H](O)[C@H](O[C@@H]2O[C@@H](C)[C@](O)(C=O)[C@H]2O[C@@H]2O[C@@H](CO)[C@H](O)[C@@H](O)[C@@H]2NC)[C@@H](N/C(N)=N\[H])[C@@H]1O` [streptomycin], the “Bacterial growth on King B agar media containing the agent” value (shortened to “Bacterial growth”) [14] was “did not grow”, the “Bacterial growth” value [15] was “did not grow” and the “Bacterial growth” value [16] was “not inhibited”. The “Bacterial growth” value (E. coli ATCC 25922) was “did not grow”.
